# Measured values taken from patent US20200069686A1, “N-SUBSTITUTED INDOLE DERIVATIVES” (Idorsia Pharmaceuticals Ltd, priority 2017, published 2020).
# Target: T1, PTGER2 (EP2) (Homo sapiens, UniProt P43116)
# T1 construct: host or cells: HEK 293 (PathHunter PTGER2 b-arrestin cell line)
# Experiment: hEP2 b-arrestin assay (PathHunter HEK 293 PTGER2 b-arrestin cells)
# Format: cell-based
# Details: PGE2 5 μM (EC80) as agonist, antagonistic activity, read-out: hEP2 beta-arrestin IC50
# Procedure: (§1) The antagonistic activities of the compounds of formula (I) on the EP2 and EP4 receptors are determined in accordance with the following experimental methods.
# (§2) The assay is using the PathHunter™ HEK 293 PTGER2 and PTGER4 b-arrestin cell lines from DiscoverX. The system is based on the Enzyme Fragment Complementation Technology. Two complementing fragments of the b-galactosidase enzyme are expressed within stably transfected cells. The larger portion of b-gal, termed EA for Enzyme Acceptor, is fused to the C-terminus of b-arrestin 2. The smaller fragment, termed ProLink™ tag, is fused to PTGER2 (EP2) or PTRGER4 (EP4) at the C-terminus. Upon activation, b-arrestin is recruited which forces the interaction of ProLink and EA, allowing complementation of the two fragments of b-gal and the formation of a functional enzyme which is capable of hydrolysing the substrate and generating a chemiluminescent signal.
# (§3) The HEK 293 PTGER2 b-arrestin cells (DiscoverX 93-021-4C1) are detached from culture dishes with a cell dissociation buffer (Invitrogen, 13151-014), and collected in growing medium (GM: DMEM+Glutamax-I (Invitrogen 32430)/10% FCS, 1% Penicilin/streptomycin). 5000 cells per well of a 384 well plate (white with white bottom Greiner 781080) are seeded in 20 ul per well of GM. Plate is incubated at 37° C., 5% CO2 for 24 hours.
# (§4) Stock solutions of test compounds are made at a concentration of 10 mM in DMSO, and serially diluted in DMSO to concentrations required for inhibition dose response curves (tested concentration range 10 μM-2 nM or 1 μM-0.2 nM).
# PGE2 (Cayman 14010, stock solution: 10 mM in DMSO) is used as agonist at 5 μM final concentration, corresponding to EC80.
# Five microliters of diluted compounds are transferred into the assay plate. Plate is pre-incubated 15 minutes at 37° C. Then five microliters of PGE2 (final conc. 5 μM) are transferred into the assay plate. Plate is incubated 120 minutes at 37° C.
# (§5) PathHunter Glo Detection Kit components are thawed and mix according to manufacturers instructions: 1 part Galacton Star Substrate with 5 parts Emerald II™ Solution, and 19 parts of PathHunter Cell Assay Buffer, respectively. Twelve μL of reagent are transferred to the assay plate and incubate for 1 hour at room temperature in the dark. Luminescence counts are read on a BMG Fluostar Optima reader according to manufacturers instructions.
# (§6) For each compound concentration calculate of the percentage of activity compared to DMSO control value as average ±STDEV. (each concentration is measured in duplicate)
# (§7) IC50 values and curves are generated with XLfit software (IDBS) using Dose-Response One Site model 203. When compounds were measured multiple times, mean values are given.
# T1 sequence (P43116 whole entry): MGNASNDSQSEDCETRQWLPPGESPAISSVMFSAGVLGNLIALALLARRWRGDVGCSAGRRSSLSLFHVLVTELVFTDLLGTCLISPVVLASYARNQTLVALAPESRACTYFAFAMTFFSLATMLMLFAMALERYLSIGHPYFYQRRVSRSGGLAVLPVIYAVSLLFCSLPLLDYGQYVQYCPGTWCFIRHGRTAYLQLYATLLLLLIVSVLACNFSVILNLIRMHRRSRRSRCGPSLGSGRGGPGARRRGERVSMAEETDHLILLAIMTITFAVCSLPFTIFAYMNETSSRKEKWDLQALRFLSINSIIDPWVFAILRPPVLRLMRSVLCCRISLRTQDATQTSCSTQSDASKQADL
row,Structure (SMILES),IC50 [nM]
1,"Cc1cc2ccccc2n1CCNc1cc(-c2ccc(C(=O)O)cc2)ncn1 [Example 1, 4-{6-[2-(2-Methyl-indol-1-yl)-ethylamino]-pyrimidin-4-yl}-benzoic acid]",13
2,"N#Cc1cc2ccccc2n1CCNc1cc(-c2ccc(C(=O)O)cc2)ncn1 [Example 2, 4-{6-[2-(2-Cyano-indol-1-yl)-ethylamino]-pyrimidin-4-yl}-benzoic acid]",11
3,"Cc1cccc2cc(C)n(CCNc3cc(-c4ccc(C(=O)O)cc4)ncn3)c12 [Example 3, 4-{6-[2-(2,7-Dimethyl-indol-1-yl)-ethylamino]-pyrimidin-4-yl}-benzoic acid]",8
4,"O=C(O)c1ccc(-c2cc(NCCn3c(Cl)cc4ccccc43)ncn2)cc1 [Example 4, 4-{6-[2-(2-Chloro-indol-1-yl)-ethylamino]-pyrimidin-4-yl}-benzoic acid]",3
5,"O=C(O)c1ccc(-c2cc(NCCn3c(Br)cc4ccccc43)ncn2)cc1 [Example 5, 4-{6-[2-(2-Bromo-indol-1-yl)-ethylamino]-pyrimidin-4-yl}-benzoic acid]",17

# Target: T2, EP2 (Homo sapiens, UniProt P43116)
# T2 construct: SF295 glioblastoma cells express high endogenous EP2 and no EP4; endogenous in cells; host or cells: SF295 glioblastoma cells (NCI No. 0503170)
# T2 sequence (P43116 whole entry): as above
# Experiment: hEP2 cAMP assay (SF295 glioblastoma cells, HTRF cAMP)
# Format: cell-based
# Details: PGE2 75 nM (EC80) as agonist, antagonistic activity
# Procedure: (§8) The antagonistic activities of the compounds of formula (I) on the EP2 and EP4 receptors are also determined in accordance with the following experimental method.
# (§9) Human tumor cell lines expressing endogenously either EP4 or EP2 are used and cAMP accumulation in cells upon PGE2 stimulation is monitored. SF295 glioblastoma cells express high endogenous EP2 and no EP4,whereas BT549 breast cancer cells, express high endogenous EP4 levels and very low EP2 levels.
# (§10) As a detection method for cAMP the HTRF (homogeneous time resolved fluorescence) Cisbio kit (HTRF cAMP dynamic 2 kit 20′000 tests Cisbio Cat. #62AM4PEC) was used, which is based on a competitive immunoassay using a Cryptate-labeled anti-cAMP antibody and d2-labeled cAMP. Native cAMP produced by cells or unlabeled cAMP (for the standard curve) compete with exogenously added d2-labeled cAMP (acceptor) for binding to monoclonal anti-cAMP-Eu3+ Cryptate (donor). A FRET signal (Fluorescence Resonance Energy Transfer) is obtained only if the labeled anti-cAMP antibody binds the d2 labelled cAMP, thus the specific signal (i.e. energy transfer) is inversely proportional to the concentration of cAMP in the standard or sample.
# (§11) The SF295 cells (NCl/No. 0503170) are detached from culture dishes with a cell dissociation buffer (Invitrogen, 13151-014), and collected in growing medium (GM: RPM11640 (Invitrogen 21875)/10% FCS, 1% Penicilin/streptomycin). Cells are counted washed and resuspended in assay buffer (AB; HBSS, 20 mM HEPES, 0.2% BSA; 2 mM IBMX). 4′000 cells in 5 μL of AB are seeded per well of a small volume 384 well plate (black with flat bottom, Greiner 784076).
# Stock solutions of test compounds are made at a concentration of 10 mM in DMSO, and serially diluted in DMSO to concentrations required for inhibition dose response curves (tested concentration range 30 μM-0.4 nM; […] or 1 μM-0.01 nM).
# PGE2 (Cayman 14010, stock solution: […] in DMSO) is used as agonist at 75 nM final concentration, corresponding to EC80.
# (§12) 2.5 μL of diluted compounds are transferred into the assay plate. […] Five I of each donor (anti-cAMP cryptate) and acceptor (cAMP-d2) are added and the plate is incubated another hour at room temperature in the dark and then read using a BMG LABTECH PHERAstar reader (Excitation: 337 nm, Emission: 620 and 665 nm).
# (§13) The obtained Delta F (fluorescence) values (665 nm/620 nM) are converted into % cAMP values using the measurements of the cAMP calibrator provided in the kit. For each compound concentration the percentage of cAMP compared to DMSO control value as average ±STDEV (each concentration is measured in duplicate) is calculated.
# as §7
row,Structure (SMILES),IC50 [nM]
1,"Cc1cc2ccccc2n1CCNc1cc(-c2ccc(C(=O)O)cc2)ncn1 [Example 1, 4-{6-[2-(2-Methyl-indol-1-yl)-ethylamino]-pyrimidin-4-yl}-benzoic acid]",15
2,"N#Cc1cc2ccccc2n1CCNc1cc(-c2ccc(C(=O)O)cc2)ncn1 [Example 2, 4-{6-[2-(2-Cyano-indol-1-yl)-ethylamino]-pyrimidin-4-yl}-benzoic acid]",10
3,"Cc1cccc2cc(C)n(CCNc3cc(-c4ccc(C(=O)O)cc4)ncn3)c12 [Example 3, 4-{6-[2-(2,7-Dimethyl-indol-1-yl)-ethylamino]-pyrimidin-4-yl}-benzoic acid]",5
4,"O=C(O)c1ccc(-c2cc(NCCn3c(Cl)cc4ccccc43)ncn2)cc1 [Example 4, 4-{6-[2-(2-Chloro-indol-1-yl)-ethylamino]-pyrimidin-4-yl}-benzoic acid]",2

# Target: T3, PTRGER4 (EP4) (Homo sapiens, UniProt P35408)
# T3 construct: host or cells: HEK 293 (PathHunter PTGER4 b-arrestin cell line)
# T3 sequence (P35408 whole entry): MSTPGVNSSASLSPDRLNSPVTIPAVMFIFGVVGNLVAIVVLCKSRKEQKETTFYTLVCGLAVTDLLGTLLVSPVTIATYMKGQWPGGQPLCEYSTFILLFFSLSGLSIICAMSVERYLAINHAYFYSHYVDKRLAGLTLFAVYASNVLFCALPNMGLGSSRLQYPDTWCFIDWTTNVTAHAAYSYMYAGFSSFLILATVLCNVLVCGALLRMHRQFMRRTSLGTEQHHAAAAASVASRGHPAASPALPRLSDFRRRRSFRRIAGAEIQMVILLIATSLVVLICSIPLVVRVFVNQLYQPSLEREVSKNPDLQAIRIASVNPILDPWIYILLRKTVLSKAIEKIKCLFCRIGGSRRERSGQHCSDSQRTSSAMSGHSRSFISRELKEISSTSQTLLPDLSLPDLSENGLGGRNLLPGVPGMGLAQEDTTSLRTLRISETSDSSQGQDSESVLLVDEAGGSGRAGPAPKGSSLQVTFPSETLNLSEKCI
# Experiment: hEP4 b-arrestin assay (PathHunter HEK 293 PTGER4 b-arrestin cells)
# Format: cell-based
# Details: PGE2 20 nM (EC80) as agonist, antagonistic activity, read-out: hEP4 beta-arrestin IC50
# Procedure: as §1, §2
# as §3, with “293 PTGER4” for “293 PTGER2”, “(DiscoverX 93-030-4C1)” for “(DiscoverX 93-021-4C1)”, “20 μl” for “20 ul”
# as §4
# PGE2 (Cayman 14010, stock solution: 100 uM in DMSO) is used as agonist at 20 nM final concentration, corresponding to EC80.
# Five microliters of diluted compounds are transferred into the assay plate. Plate is pre-incubated 15 minutes at 37° C. Then five microliters of PGE2 (final conc. 20 nM) are transferred into the assay plate. Plate is incubated 120 minutes at 37° C.
# as §5, with “I” for “μL”
# as §6, §7
row,Structure (SMILES),IC50 [nM]
1,"Cc1cc2ccccc2n1CCNc1cc(-c2ccc(C(=O)O)cc2)ncn1 [Example 1, 4-{6-[2-(2-Methyl-indol-1-yl)-ethylamino]-pyrimidin-4-yl}-benzoic acid]",5970
2,"N#Cc1cc2ccccc2n1CCNc1cc(-c2ccc(C(=O)O)cc2)ncn1 [Example 2, 4-{6-[2-(2-Cyano-indol-1-yl)-ethylamino]-pyrimidin-4-yl}-benzoic acid]",2060
3,"Cc1cccc2cc(C)n(CCNc3cc(-c4ccc(C(=O)O)cc4)ncn3)c12 [Example 3, 4-{6-[2-(2,7-Dimethyl-indol-1-yl)-ethylamino]-pyrimidin-4-yl}-benzoic acid]",11000
4,"O=C(O)c1ccc(-c2cc(NCCn3c(Cl)cc4ccccc43)ncn2)cc1 [Example 4, 4-{6-[2-(2-Chloro-indol-1-yl)-ethylamino]-pyrimidin-4-yl}-benzoic acid]",2960
5,"O=C(O)c1ccc(-c2cc(NCCn3c(Br)cc4ccccc43)ncn2)cc1 [Example 5, 4-{6-[2-(2-Bromo-indol-1-yl)-ethylamino]-pyrimidin-4-yl}-benzoic acid]",4970

# Target: T4, EP4 (Homo sapiens, UniProt P35408)
# T4 construct: BT549 breast cancer cells, express high endogenous EP4 levels and very low EP2 levels; endogenous in cells; host or cells: BT549 breast cancer cells (NCI No. 0507282)
# T4 sequence (P35408 whole entry): as above
# Experiment: hEP4 cAMP assay (BT549 breast cancer cells, HTRF cAMP)
# Format: cell-based
# Details: PGE2 6 nM (EC80) as agonist, antagonistic activity
# Procedure: as §8, §9, §10
# as §11, with “BT549” for “SF295”, “0507282)” for “0503170)”
# Stock solutions of test compounds are made at a concentration of 10 mM in DMSO, and serially diluted in DMSO to concentrations required for inhibition dose response curves (tested concentration range 30 μM-0.4 nM; 30 μM-0.015 nM or 1 μM-0.01 nM).
# PGE2 (Cayman 14010, stock solution: 6 μM in DMSO) is used as agonist at 6 nM final concentration, corresponding to EC80.
# as §12, with “μL” for “I”
# as §13, §7
row,Structure (SMILES),IC50 [nM]
1,"Cc1cc2ccccc2n1CCNc1cc(-c2ccc(C(=O)O)cc2)ncn1 [Example 1, 4-{6-[2-(2-Methyl-indol-1-yl)-ethylamino]-pyrimidin-4-yl}-benzoic acid]",5720
2,"N#Cc1cc2ccccc2n1CCNc1cc(-c2ccc(C(=O)O)cc2)ncn1 [Example 2, 4-{6-[2-(2-Cyano-indol-1-yl)-ethylamino]-pyrimidin-4-yl}-benzoic acid]",1350
3,"Cc1cccc2cc(C)n(CCNc3cc(-c4ccc(C(=O)O)cc4)ncn3)c12 [Example 3, 4-{6-[2-(2,7-Dimethyl-indol-1-yl)-ethylamino]-pyrimidin-4-yl}-benzoic acid]",5660
4,"O=C(O)c1ccc(-c2cc(NCCn3c(Cl)cc4ccccc43)ncn2)cc1 [Example 4, 4-{6-[2-(2-Chloro-indol-1-yl)-ethylamino]-pyrimidin-4-yl}-benzoic acid]",2610
